Data taken from patent US10669283B2, “Compound and pharmacologically acceptable salt thereof” (MEIJI SEIKA PHARMA CO., LTD., priority 2016, dated 2020).
Where two headings read alike, the source gives them in different places.

Legend:
[1] = Hepatic metabolic stability (rat liver microsome method); format: in vitro ADME; conditions: rat liver microsomes 0.5 mg/mL, test substance 1 μM, NADPH 1 mM, 37° C., 30 minutes
Experimental: Metabolic stability in rat liver microsomes was evaluated by the following method. In 100 mM of potassium phosphate buffer solution (pH 7.4), liver microsomes (concentration at reaction: 0.5 mg/mL) and the test substance (concentration at reaction: 1 μM) were preincubated at 37° C. Five minutes later, 100 mM of potassium phosphate buffer (pH 7.4) solution of NADPH (concentration at reaction: 1 mM) was mixed thereto to start the reaction. After a predetermined time passed, acetonitrile was mixed to the reaction mixture to stop the reaction. Here, the reaction time was 0 and 30 minutes, and drug concentration measurement was performed for each time period using LC-MS. The % remaining value of the test compound was calculated from the value for 0 minutes and the value for 30 minutes, using the calculation formula below: % Remaining=(Value for 30 Minutes/Value for 0 Minutes)×100
The results of measuring the rat liver microsome metabolic Stability (% remaining for 30-minute reaction) for the test compound by the above method were evaluated in accordance with the following evaluated basis; A: a % remaining rate of 75% or more, B: 60% or more and less than 75%, C: 45% or more and less than 60%, and D: less than 45%.

PDE4 = PDE4 inhibition, scintillation proximity assay (SPA); format: biochemical
Outline: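 Scintillation proximity read-out: [2,8-3H]-cAMP hydrolysis by PDE4 ran 120 min at room temperature in Tris-HCl pH 7.4 buffer with 8.3 mM MgCl2, 1.7 mM EGTA and 3 mg/mL BSA. Bead-bound product (YSi-SPA with ZnSO4, 15 min) counted; blank lacks enzyme, control has DMSO only.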

[2] = scintillation proximity assay, class symbols, read-out: PDE4 Inhibitory Activity
[3] = scintillation proximity assay (SPA), evaluated as classes A, B, C, read-out: PDE4 Inhibitory Activity (concentration for the inhibition rate of 50%)

c1csc(-c2ccc(N3CCOCC3)c3nc(N4CC5CC(C4)N5)oc23)n1 [Example 369, 2-(3,6-diazabicyclo[3.1.1]heptan-3-yl)-4-morpholino-7-(thiazol-2-yl) benzo[d]oxazole]
Residual ratio (% remaining for 30-minute reaction) [1]: B (60% or more and less than 75%) | IC50 (PDE4; [2]): < 100 nM

c1csc(-c2ccc(O[C@@H]3CCOC3)c3nc(N4CC5CC(C4)N5)oc23)n1 [Example 324, 2-(3,6-Diazabicyclo[3.1.1]heptan-3-yl)-4-(((R)-tetrahydrofuran-3-yl)oxy)-7-(thiazol-2-yl)benzo[d]oxazole]
Residual ratio (% remaining for 30-minute reaction) [1]: A (a % remaining rate of 75% or more) | IC50 (PDE4; [3]): < 100 nM

CCNC(=O)c1ccc(-c2nccs2)c2oc(N3CC4CC(C3)N4)nc12 [Example 358, 2-(3,6-diazabicyclo [3.1.1]heptan-3-yl)-N-ethyl-7-(thiazol-2-yl) benzo[d]oxazole-4-carboxamide]
Residual ratio (% remaining for 30-minute reaction) [1]: A (a % remaining rate of 75% or more) | IC50 (PDE4; [2]): < 100 nM

FC(F)(F)Oc1c(Cl)cc(-n2cccn2)c2oc(N3CC4CCC(C3)N4)nc12 [Example 5, 2-(3,8-Diazabicyclo[3.2.1]octan-3-yl)-5-chloro-7-(1H-pyrazol-1-yl)-4-(trifluoromethoxy)benzo[d]oxazole]
Residual ratio (% remaining for 30-minute reaction) [1]: B (60% or more and less than 75%) | IC50 (PDE4; [3]): < 100 nM

CC(O)(CO)C(F)(F)Oc1ccc(-c2nccs2)c2oc(N3CC4CC(C3)N4)nc12 (single isomer, unassigned) [Example 365, 3-((2-(3,6-diazabicyclo [3.1.1]heptan-3-yl)-7-(thiazol-2-yl)benzo[d]oxazol-4-yl)oxy)-3,3-difluoro-2-methylpropane-1,2-diol]
Residual ratio (% remaining for 30-minute reaction) [1]: A (a % remaining rate of 75% or more) | IC50 (PDE4; [2]): < 100 nM

Cn1ccc(-c2ccc(OC(F)(F)C(C)(C)O)c3nc(N4CC5CC(C4)N5)oc23)n1 [Example 394, 1-((2-(3,6-diazabicyclo[3.1.1]heptan-3-yl)-7-(1-methyl-1H-pyrazol-3-yl)benzo[d]oxazol-4-yl)oxy)-1,1-difluoro-2-methylpropan-2-ol]
Residual ratio (% remaining for 30-minute reaction) [1]: A (a % remaining rate of 75% or more) | IC50 (PDE4; [2]): 100 to 1000 nM

C[S+]([O-])c1ccc(-c2nccs2)c2oc(N3CC4CC(C3)N4)nc12 (centres unmarked) [Example 346, 2-(3,6-diazabicyclo[3.1.1]heptan-3-yl)-4-(methylsulfinyl)-7-(thiazol-2-yl)benzo [d]oxazole]
Residual ratio (% remaining for 30-minute reaction) [1]: A (a % remaining rate of 75% or more) | IC50 (PDE4; [2]): < 100 nM

O=C(NCCO)C(F)(F)Oc1ccc(-c2nccs2)c2oc(N3CC4CC(C3)N4)nc12 [Example 411, 2-((2-(3,6-diazabicyclo [3.1.1]heptan-3-yl)-7-(thiazol-2-yl)benzo[d]oxazol-4-yl)oxy)-2,2-difluoro-N-(2-hydroxy-ethyl) acetamide]
Residual ratio (% remaining for 30-minute reaction) [1]: A (a % remaining rate of 75% or more) | IC50 (PDE4; [2]): < 100 nM

FC(F)(F)Oc1c(Cl)cc(-c2nccs2)c2oc(N3CC4CC(C3)N4)nc12 [Example 3, 2-(3,6-Diazabicyclo[3.1.1]heptan-3-yl)-5-chloro-7-(thiazol-2-yl)-4-(trifluoromethoxy)benzo[d]oxazole]
Residual ratio (% remaining for 30-minute reaction) [1]: B (60% or more and less than 75%) | IC50 (PDE4; [3]): < 100 nM

OCC(F)(F)Oc1ccc(-c2nccs2)c2oc(N3CC4CCC(C3)N4)nc12 [Example 404, 2-((2-(3,8-diazabicyclo [3.2.1]octan-3-yl) 7-(thiazol-2-yl)benzo[d]oxazol-4-yl)oxy)-2,2-difluoroethan-1-ol]
Residual ratio (% remaining for 30-minute reaction) [1]: B (60% or more and less than 75%) | IC50 (PDE4; [2]): < 100 nM

Fc1ccc(-c2cc(Cl)c(OC(F)(F)F)c3nc(N4CC5CCC(C4)N5)oc23)nc1 [Example 10, 2-(3,8-Diazabicyclo[3.2.1]octan-3-yl)-5-chloro-7-(5-fluoropyridin-2-yl)-4-(trifluoromethoxy)benzo[d]oxazole]
Residual ratio (% remaining for 30-minute reaction) [1]: A (a % remaining rate of 75% or more) | IC50 (PDE4; [3]): < 100 nM

c1csc(-c2ccc(OC3CCOCC3)c3nc(N4CC5CCC(C4)N5)oc23)n1 [Example 254, 2-(3,8-Diazabicyclo[3.2.1]octan-3-yl)-4-((tetrahydro-2H-pyran-4-yl)oxy)-7-(thiazol-2-yl)benzo[d]oxazole]
Residual ratio (% remaining for 30-minute reaction) [1]: A (a % remaining rate of 75% or more) | IC50 (PDE4; [3]): < 100 nM

OCc1cccnc1Oc1ccc(-c2nccs2)c2oc(N3CC4CC(C3)N4)nc12 [Example 376, (2-((2-(3,6-diazabicyclo[3.1.1]heptan-3-yl)-7-(thiazol-2-yl)benzo[d]oxazol-4-yl)oxy)pyridin-3-yl)methanol]
Residual ratio (% remaining for 30-minute reaction) [1]: A (a % remaining rate of 75% or more) | IC50 (PDE4; [2]): < 100 nM

FC(F)(F)c1c(Cl)cc(-n2cccn2)c2oc(N3CC4CC(C3)N4)nc12 [Example 17, 2-(3,6-Diazabicyclo[3.1.1]heptan-3-yl)-5-chloro-7-(1H-pyrazol-1-yl)-4-(trifluoromethyl)benzo[d]oxazole]
Residual ratio (% remaining for 30-minute reaction) [1]: B (60% or more and less than 75%) | IC50 (PDE4; [3]): < 100 nM

CC(C)(O)C(F)(F)Oc1ccc(-c2nccs2)c2oc(N3CC4CCC(C3)N4)nc12 [Example 405, 1-((2-(3,8-diazabicyclo [3.2.1]octan-3-yl)-7-(thiazol-2-yl)benzo[d]oxazol-4-yl)oxy)-1,1-difluoro-2-methylpropan-2-ol]
Residual ratio (% remaining for 30-minute reaction) [1]: B (60% or more and less than 75%) | IC50 (PDE4; [2]): < 100 nM

OC1CC(Oc2ccc(-c3nccs3)c3oc(N4CC5CC(C4)N5)nc23)C1 (centres unmarked) [Example 285, 3-((2-(3,6-Diazabicyclo[3.1.1]heptan-3-yl)-7-(thiazol-2-yl)benzo[d]oxazol-4-yl)oxy)cyclobutan-1-ol]
Residual ratio (% remaining for 30-minute reaction) [1]: A (a % remaining rate of 75% or more) | IC50 (PDE4; [3]): < 100 nM

Cc1csc(-c2ccc(OC(F)(F)C(C)(C)O)c3nc(N4CC5CCC(C4)N5)oc23)n1 [Example 318, 1-((2-(3,8-Diazabicyclo[3.2.1]octan-3-yl)-7-(4-methylthiazol-2-yl)benzo[d]oxazol-4-yl)oxy)-1,1-difluoro-2-methylpropan-2-ol]
Residual ratio (% remaining for 30-minute reaction) [1]: B (60% or more and less than 75%) | IC50 (PDE4; [3]): < 100 nM

OCCSc1ccc(-c2nccs2)c2oc(N3CC4CC(C3)N4)nc12 [Example 348, 2-((2-(3,6-diazabicyclo[3.1.1]heptan-3-yl)-7-(thiazol-2-yl)benzo [d]oxazol-4-yl)thio) ethan-1-ol]
Residual ratio (% remaining for 30-minute reaction) [1]: B (60% or more and less than 75%) | IC50 (PDE4; [2]): < 100 nM

O=S(=O)(c1ccc(-c2nccs2)c2oc(N3CC4CC(C3)N4)nc12)N1CCOCC1 [Example 391, 2-(3,6-diazabicyclo [3.1.1]heptan-3-yl)-4-(morpholino-sulfonyl)-7-(thiazol-2-yl)benzo [d]oxazole]
Residual ratio (% remaining for 30-minute reaction) [1]: B (60% or more and less than 75%) | IC50 (PDE4; [2]): < 100 nM

OCC(F)(F)Oc1ccc(-c2nccs2)c2oc(N3CC4CC(C3)N4O)nc12 [Example 374, 3-(4-(1,1-difluoro-2-hydroxyethoxy)-7-(thiazol-2-yl)benzo [d]oxazol-2-yl)-3,6-diazabicyclo[3.1.1] heptan-6-ol]
Residual ratio (% remaining for 30-minute reaction) [1]: B (60% or more and less than 75%) | IC50 (PDE4; [2]): < 100 nM

Cc1nsc(-c2ccc(OC(F)(F)C(C)(C)O)c3nc(N4CC5CCC(C4)N5)oc23)n1 [Example 333, 1-((2-(3,8-diazabicyclo [3.2.1]octan-3-yl)-7-(3-methyl-1,2,4-thiadiazol-5-yl)benzo[d]oxazol-4-yl)oxy)-1,1-difluoro-2-methylpropan-2-ol]
Residual ratio (% remaining for 30-minute reaction) [1]: B (60% or more and less than 75%) | IC50 (PDE4; [2]): 100 to 1000 nM

CC(C)(O)C(F)(F)Oc1ccc(-c2nccs2)c2oc(N3CC4CC(C3)N4)nc12 [Example 248, 1-((2-(3,6-Diazabicyclo[3.1.1]heptan-3-yl)-7-(thiazol-2-yl)benzo[d]oxazol-4-yl)oxy)-1,1-difluoro-2-methylpropan-2-ol]
Residual ratio (% remaining for 30-minute reaction) [1]: A (a % remaining rate of 75% or more) | IC50 (PDE4; [3]): < 100 nM

c1csc(-c2ccc(O[C@H]3CCOC3)c3nc(N4CC5CC(C4)N5)oc23)n1 [Example 323, 2-(3,6-Diazabicyclo[3.1.1]heptan-3-yl)-4-(((S)-tetrahydrofuran-3-yl)oxy)-7-(thiazol-2-yl)benzo[d]oxazole]
Residual ratio (% remaining for 30-minute reaction) [1]: B (60% or more and less than 75%) | IC50 (PDE4; [3]): < 100 nM

OCC(F)(F)Oc1ccc(-c2nccs2)c2oc(N3CC4CC(C3)N4)nc12 [Example 249, 2-((2-(3,6-Diazabicyclo[3.1.1]heptan-3-yl)-7-(thiazol-2-yl)benzo[d]oxazol-4-yl)oxy)-2,2-difluoroethan-1-ol]
Residual ratio (% remaining for 30-minute reaction) [1]: B (60% or more and less than 75%) | IC50 (PDE4; [3]): < 100 nM

CC(C)(O)C(F)(F)Oc1ccc(-c2ncns2)c2oc(N3CC4CCC(C3)N4)nc12 [Example 327, 1-((2-(3,8-Diazabicyclo[3.2.1]octan-3-yl)-7-(1,2,4-thiadiazol-5-yl)benzo[d]oxazol-4-yl)oxy)-1,1-difluoro-2-methylpropan-2-ol]
Residual ratio (% remaining for 30-minute reaction) [1]: B (60% or more and less than 75%) | IC50 (PDE4; [2]): < 100 nM
